Target: PD-1/PD-L1 (Homo sapiens (Human), UniProt Q9NZQ7)
Assay: PD-1/PD-L1 biochemical protein-protein interaction assay (ALPHA)
Settings: 0.3 nM His tagged PD-L1, 2.5 nM biotinylated Fc-PD-1, 60 minutes at 25° C., read-out: IC50 PD-L1-PD1

Chain of PD-1/PD-L1 (Q9NZQ7 19-238): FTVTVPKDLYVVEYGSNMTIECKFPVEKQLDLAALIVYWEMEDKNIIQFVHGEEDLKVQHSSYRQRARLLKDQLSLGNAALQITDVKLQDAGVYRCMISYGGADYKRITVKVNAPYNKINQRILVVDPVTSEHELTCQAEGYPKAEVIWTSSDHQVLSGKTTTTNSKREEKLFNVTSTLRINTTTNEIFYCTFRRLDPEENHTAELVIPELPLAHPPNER

Row | Structure (SMILES) | IC50
1 | COC[C@@H]1CCN1Cc1ncc(-c2cccc(-c3cccc(-c4cnc(CNC[C@@H]5CCC(=O)N5)c(OC)n4)c3Cl)c2Cl)nc1OC [compound 310] | 0.216 nM
2 | COc1nc(-c2cccc(-c3cccc(-c4cnc(CNC[C@@H]5CCC(=O)N5)c(OC)n4)c3Cl)c2Cl)cnc1CNCC1CS(=O)(=O)C1 [compound 311] | 0.24 nM
3 | COc1nc(-c2cccc(-c3cccc(-c4cnc(CN5C[C@H]6CC(=O)N[C@H]6C5)c(OC)n4)c3Cl)c2Cl)cnc1CNC[C@@H]1CCC(=O)N1 [compound 312] | 0.295 nM
4 | COc1nc(-c2cccc(-c3cccc(-c4cnc([C@@H](C)N)c(OC)n4)c3Cl)c2Cl)cnc1CNC[C@@H]1CCC(=O)N1 [compound 315] | 0.18 nM
5 | COc1nc(-c2cccc(-c3cccc(-c4cnc(CN[C@@H](C)[C@H]5CCC(=O)N5)c(OC)n4)c3Cl)c2Cl)cnc1CN[C@@H](C)[C@H]1CCC(=O)N1 [compound 317] | 0.22 nM
6 | CNc1nc(-c2cccc(-c3cccc(-c4cnc(CN(C)C[C@@H]5CCC(=O)N5)c(NC)n4)c3Cl)c2Cl)cnc1CN(C)C[C@@H]1CCC(=O)N1 [compound 319] | 3.87 nM
7 | CNc1nc(-c2cccc(-c3cccc(-c4cnc(CNC[C@H]5CCC(=O)N5)c(NC)n4)c3Cl)c2Cl)cnc1CNC[C@H]1CCC(=O)N1 [compound 320] | 3.72 nM
8 | COc1nc(-c2cccc(-c3cccc(-c4cnc(CN[C@@H]5CCN(S(C)(=O)=O)C5)c(OC)n4)c3Cl)c2Cl)cnc1CN[C@@H]1CCN(S(C)(=O)=O)C1 [compound 321] | 0.46 nM
9 | COc1nc(-c2cccc(-c3cccc(-c4cnc(CN(C)C[C@@H]5CCC(=O)N5)c(OC)n4)c3Cl)c2Cl)cnc1CN(C)CCO [compound 322] | 0.23 nM
10 | COc1nc(-c2cccc(-c3cccc(-c4cnc(CNC[C@H]5NC(=O)[C@@H]6C[C@H]56)c(OC)n4)c3Cl)c2Cl)cnc1CNC[C@H]1NC(=O)[C@@H]2C[C@H]12 [compound 324] | 0.358 nM
11 | COc1nc(-c2cccc(-c3cccc(-c4cnc(CN(Cc5ccccc5)C[C@@H]5CCC(=O)N5)c(OC)n4)c3Cl)c2Cl)cnc1CNC[C@@H]1CCC(=O)N1 [compound 325] | 1.86 nM
12 | COc1nc(-c2cccc(-c3cccc(-c4cnc(CNC[C@@H]5C[C@@H](C)C(=O)N5)c(OC)n4)c3Cl)c2Cl)cnc1CNC[C@@H]1C[C@@H](C)C(=O)N1 [compound 326] | 0.18 nM
13 | COc1nc(-c2cccc(-c3cccc(-c4cnc(CN(C)C[C@@H]5CCC(=O)N5)c(OC)n4)c3Cl)c2Cl)cnc1CN(C)C[C@@H]1CCC(=O)N1 [compound 327] | 0.238 nM
14 | COc1nc(-c2cccc(-c3cccc(-c4cnc(CN(CC5CC5)C[C@@H]5CCC(=O)N5)c(OC)n4)c3Cl)c2Cl)cnc1CN(CC1CC1)C[C@@H]1CCC(=O)N1 [compound 328] | 4.04 nM
15 | COc1nc(-c2cccc(-c3cccc(-c4cnc(CN(CC5CC5)C[C@@H]5CCC(=O)N5)c(OC)n4)c3Cl)c2Cl)cnc1CNC[C@@H]1CCC(=O)N1 [compound 329] | 0.955 nM
16 | COc1nc(-c2cccc(-c3cccc(-c4cnc(CNC[C@@H]5C[C@@H](CC(F)(F)F)C(=O)N5)c(OC)n4)c3Cl)c2Cl)cnc1CNC[C@@H]1C[C@@H](CC(F)(F)F)C(=O)N1 [compound 330] | 5.68 nM
17 | COc1nc(-c2cccc(-c3cccc(-c4cnc(CNC[C@@H]5CC6(CC6)C(=O)N5)c(OC)n4)c3Cl)c2Cl)cnc1CNC[C@@H]1CC2(CC2)C(=O)N1 [compound 331] | 0.669 nM
18 | COc1nc(-c2cccc(-c3cccc(-c4cnc(CN5[C@@H](C)COC[C@@H]5C)c(OC)n4)c3Cl)c2Cl)cnc1CNC[C@@H]1CCC(=O)N1 [compound 332] | 0.743 nM
19 | COc1nc(-c2cccc(-c3cccc(-c4cnc(CN[C@@H]5CCOC[C@H]5O)c(OC)n4)c3Cl)c2Cl)cnc1CNC[C@@H]1CCC(=O)N1 [compound 334] | 0.246 nM
20 | COc1nc(-c2cccc(-c3cccc(-c4cnc(CNC[C@@H]5CCC(=O)N5)c(OC)n4)c3Cl)c2Cl)cnc1CNCc1ccc(S(N)(=O)=O)s1 [compound 337] | 1.1 nM
21 | COc1nc(-c2cccc(-c3cccc(-c4cnc(CNC[C@@H]5CCC(=O)N5)c(OC)n4)c3Cl)c2Cl)cnc1CNCc1ncccc1O [compound 338] | 0.565 nM
22 | COc1nc(-c2cccc(-c3cccc(-c4cnc(CN[C@@H]5COCC[C@H]5O)c(OC)n4)c3Cl)c2Cl)cnc1CNC[C@@H]1CCC(=O)N1 [compound 339] | 0.192 nM
23 | COc1nc(-c2cccc(-c3cccc(-c4cnc(CNC[C@@H](C)O)c(OC)n4)c3Cl)c2Cl)cnc1CNC[C@@H]1CCC(=O)N1 [compound 345] | 0.313 nM
24 | COc1nc(-c2cccc(-c3cccc(-c4cnc(CN[C@@H](C)CO)c(OC)n4)c3Cl)c2Cl)cnc1CNC[C@@H]1CCC(=O)N1 [compound 346] | 0.323 nM
25 | COc1nc(-c2cccc(-c3cccc(-c4cnc(CN[C@H](C)CO)c(OC)n4)c3Cl)c2Cl)cnc1CNC[C@@H]1CCC(=O)N1 [compound 347] | 0.245 nM
26 | COc1nc(-c2cccc(-c3cccc(-c4cnc(CN5CC(c6ccccn6)C5)c(OC)n4)c3Cl)c2Cl)cnc1CNC[C@@H]1CCC(=O)N1 [compound 349] | 0.389 nM

Molecules with a lower IC50, results first:

Row | IC50 | Structure (SMILES)
27 | 0.172 nM | COc1nc(-c2cccc(-c3cccc(-c4cnc(CN[C@H]5CCOC[C@@H]5O)c(OC)n4)c3Cl)c2Cl)cnc1CNC[C@@H]1CCC(=O)N1 [compound 335]
28 | 0.171 nM | COc1nc(-c2cccc(-c3cccc(-c4cnc(CN[C@@H]5CCN(C6COC6)C5)c(OC)n4)c3Cl)c2Cl)cnc1CNC[C@@H]1CCC(=O)N1 [compound 333]
29 | 0.17 nM | COc1nc(-c2cccc(-c3cccc(-c4cnc([C@H](C)N)c(OC)n4)c3Cl)c2Cl)cnc1CNC[C@@H]1CCC(=O)N1 [compound 316]
30 | 0.15 nM | COc1nc(-c2cccc(-c3cccc(-c4cnc(CNC[C@@H]5CCC(=O)N5)c(OC)n4)c3Cl)c2Cl)cnc1CN [compound 318]
31 | 0.142 nM | COc1nc(-c2cccc(-c3cccc(-c4cnc(CNC[C@@H]5CCC(=O)N5)c(OC)n4)c3Cl)c2Cl)cnc1CNCC[C@H]1CCC(=O)N1 [compound 314]
32 | 0.138 nM | COc1nc(-c2cccc(-c3cccc(-c4cnc(CN5CC(N6CC(O)C6)C5)c(OC)n4)c3Cl)c2Cl)cnc1CNC[C@@H]1CCC(=O)N1 [compound 348]
33 | 0.137 nM | COc1nc(-c2cccc(-c3cccc(-c4cnc(CN[C@H]5COCC[C@@H]5O)c(OC)n4)c3Cl)c2Cl)cnc1CNC[C@@H]1CCC(=O)N1 [compound 336]
34 | 0.126 nM | COc1nc(-c2cccc(-c3cccc(-c4cnc(CN[C@H]5C[C@@H](O)C5)c(OC)n4)c3Cl)c2Cl)cnc1CNC[C@@H]1CCC(=O)N1 [compound 343]
35 | 0.12 nM | COc1nc(-c2cccc(-c3cccc(-c4cnc(CN(C)CCO)c(OC)n4)c3Cl)c2Cl)cnc1CNC[C@@H]1CCC(=O)N1 [compound 323]
36 | 0.118 nM | COCCNCc1ncc(-c2cccc(-c3cccc(-c4cnc(CNC[C@@H]5CCC(=O)N5)c(OC)n4)c3Cl)c2Cl)nc1OC [compound 340]
37 | 0.114 nM | COc1nc(-c2cccc(-c3cccc(-c4cnc(CNC[C@H](C)O)c(OC)n4)c3Cl)c2Cl)cnc1CNC[C@@H]1CCC(=O)N1 [compound 344]
38 | 0.107 nM | COc1nc(-c2cccc(-c3cccc(-c4cnc(CN[C@H]5C[C@H](O)C5)c(OC)n4)c3Cl)c2Cl)cnc1CNC[C@@H]1CCC(=O)N1 [compound 342]
39 | 0.094 nM | COc1nc(-c2cccc(-c3cccc(-c4cnc(CN[C@H]5C[C@@H](CO)C5)c(OC)n4)c3Cl)c2Cl)cnc1CNC[C@@H]1CCC(=O)N1 [compound 341]

From US10710986B2, “PD-1/PD-L1 inhibitors” (Gilead Sciences, Inc., priority 2018, dated 2020)
